Reference: patent US20240100031A1, “PHARMACEUTICAL COMPOSITION FOR PREVENTING OR TREATING VIRAL […] PIPERLONGUMINE-BASED COMPOUND AS ACTIVE INGREDIENT” (priority 2020, published 2024)

Test system: novel coronavirus (SARS-CoV-2)
Assay: microbe, parasite or virus in culture
Format: cell-based
Conditions: for IC50: Severe acute respiratory syndrome coronavirus 2, Vero, 24 h, read-out: Infection inhibitory concentration IC50

Row | Structure (SMILES) | IC50 | inhibition of viral infection compared with positive controls (in words)
1 | O=C(/C=C/c1cccc([N+](=O)[O-])c1)N1CCC=C(Cl)C1=O [Compound 16, (E)-3-chloro-1-(3-(3-nitrophenyl)acryloyl)-5,6-dihydropyridin-2(1H)-one] | 4.19 µM | –
2 | COC(=O)c1cc(/C=C/C(=O)N2CCC=C(Cl)C2=O)ccc1OC(C)=O [Compound 13, (E)-methyl-2-acetoxy-5-(3-(3-chloro-2-oxo-5,6-dihydropyridin-1(2H)-yl)-3-oxoprop-1-en-1-yl)benzoate] | 1.86 µM | more remarkable effects than remdesivir
3 | COC(=O)c1cc(/C=C/C(=O)N2CCC=C(Cl)C2=O)ccc1OC [Compound 3, (E)-methyl-5-(3-(3-chloro-2-oxo-5,6-dihydropyridin-1(2H)-yl)-3-oxoprop-1-en-1-yl)-2-methoxybenzoate] | 2.01 µM | more remarkable effects than remdesivir
4 | O=C(/C=C/c1cccc([N+](=O)[O-])c1)N1CCC=C(Br)C1=O [Compound 17, (E)-3-bromo-1-(3-(3-nitrophenyl)acryloyl)-5,6-dihydropyridin-2(1H)-one] | 5.34 µM | –
5 | COc1cc(/C=C/C(=O)N2CCC=C(Cl)C2=O)cc(OC)c1OCc1nnc(-c2cc(Cl)cc(Cl)c2)o1 [Compound 19, (E)-3-chloro-1-(3-(4-((5-(3,5-dichlorophenyl)-1,3,4-oxadiazol-2-yl)methoxy)-3,5-dimethoxyphenyl)acryloyl)-5,6-dihydropyridin-2(1H)-one] | 4.12 µM | –
6 | CCN(CC)CCCC(C)Nc1ccnc2cc(Cl)ccc12 (centres unmarked) [Chloroquine, reference compound] | 4.1 µM | –
7 | COC(=O)c1cc(/C=C/C(=O)N2CCC=C(Cl)C2=O)ccc1O [Compound 12, (E)-methyl-5-(3-(3-chloro-2-oxo-5,6-dihydropyridin-1(2H)-yl)-3-oxoprop-1-en-1-yl)-2-hydroxybenzoate] | 2.63 µM | more remarkable effects than remdesivir
8 | CCC(CC)COC(=O)[C@H](C)N[P@](=O)(OC[C@H]1O[C@@](C#N)(c2ccc3c(N)ncnn23)[C@H](O)[C@@H]1O)Oc1ccccc1 [Remdesivir, remdesivir, reference compound] | 2.65 µM | –
9 | COC(=O)c1cc(/C=C/C(=O)N2CCC=C(Br)C2=O)ccc1OC [Compound 9, (E)-methyl-5-(3-(3-bromo-2-oxo-5,6-dihydropyridin-1(2H)-yl)-3-oxoprop-1-en-1-yl)-2-methoxybenzoate] | 1.6 µM | more remarkable effects than remdesivir
10 | COC(=O)c1cc(/C=C/C(=O)N2CCC=C(Br)C2=O)ccc1O [Compound 10, (E)-methyl-5-(3-(3-bromo-2-oxo-5,6-dihydropyridin-1(2H)-yl)-3-oxoprop-1-en-1-yl)-2-hydroxybenzoate] | 2.31 µM | more remarkable effects than remdesivir
11 | COC(=O)c1cc(/C=C/C(=O)N2CCC=CC2=O)ccc1OC [Compound 1, (E)-methyl-2-methoxy-5-(3-oxo-3-(2-oxo-5,6-dihydropyridin-1(2H)-yl)prop-1-en-1-yl)benzoate] | 4.46 µM | –
12 | Cc1cccc(C)c1OCC(=O)N[C@@H](Cc1ccccc1)[C@@H](O)C[C@H](Cc1ccccc1)NC(=O)[C@H](C(C)C)N1CCCNC1=O [Lopinavir, lopinavir, reference compound] | 12.7 µM | –
13 | COC(=O)c1cc(/C=C/C(=O)N2CC=CC2=O)ccc1OC(C)=O [Compound 4, (E)-methyl-2-acetoxy-5-(3-oxo-3-(2-oxo-2,5-dihydro-1H-pyrrol-1-yl)prop-1-en-1-yl)benzoate] | 7.68 µM | –
14 | COC(=O)c1cc(/C=C/C(=O)N2CCC=C(Br)C2=O)ccc1OC(C)=O [Compound 11, (E)-methyl-2-acetoxy-5-(3-(3-bromo-2-oxo-5,6-dihydropyridin-1(2H)-yl)-3-oxoprop-1-en-1-yl)benzoate] | 1.97 µM | more remarkable effects than remdesivir
